Holding throughout (assay): relative viability (nuclei count vs DMSO), 5 days (fraction); higher = more cells survive
Compound in assay [1]: CCOC(=O)CCNc1cc(N2CCc3ccccc3CC2)nc(-c2ccccn2)n1 [GSK-J4]
Put shortly:
(§1)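 After an overnight hold at 37 °C, lung cancer cell lines in 1536-well plates were pinned with five library-drug doses (not always all listed), each √10 from the next, on vehicle-anchored plates. The cells stayed 5 days without fresh medium, then a one-step fix, permeabilisation and Hoechst stain preceded 4× imaging and MetaXpress nuclear counts. A plate passed only with control CV under 25% and at least one doubling. Viability is the median, over plates, of treated-well nuclei relative to vehicle-well nuclei.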

Compound in assay [2]: CN1CCC(CC1)OC2=CC(=C(C=C2)NC3=NC=C4C(=N3)N(C(=O)N4C)C5CCCC5)OC [AZ3146]
Put shortly: as §1

Compound in assay [3]: CN1CCC(CC1)OC2=CC(=C(C=C2)NC3=NC=C4C(=N3)N(C(=O)N4C)C5CCCC5)OC [AZ3146] + Nc1nc2[nH]cc(CCc3ccc(C(=O)N[C@@H](CCC(=O)O)C(=O)O)cc3)c2c(=O)[nH]1 [Pemetrexed] (partner 0.2 µM)
Put shortly: (§2)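 Relative viability divides the nuclei count in treated wells by that in vehicle wells. Lung cancer cell lines were seeded in 1536-well plates, dosed by pin tool the next day, and fixed and stained after 5 days in one step with final 0.05% Triton X-100, 1% formaldehyde and 1 ug/ml Hoechst. Dosing was a single drug or a fixed anchor-drug dose plus five library-drug doses (not always all listed) in √10 steps, and values are medians of duplicate plates imaged at 4×.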

Compound in assay [4]: CCOC(=O)CCNc1cc(N2CCc3ccccc3CC2)nc(-c2ccccn2)n1 [GSK-J4] + Cc1nc(NC(=O)N2CCC[C@H]2C(N)=O)sc1-c1ccnc(C(C)(C)C(F)(F)F)c1 [Alpelisib] (partner 2 µM)
Summed up:
as §2

For PC-3 [JPC-3], the relative viability worked out at 1.01 in assay [1] (0.5 µM); 1.03 in assay [1] (1.581 µM); 0.953 in assay [1] (5 µM); 0.95 in assay [1] (15.81 µM); 0.955 in assay [1] (50 µM); 0.907 in assay [2] (0.08 µM). Besides, the relative viability in assay [2] (0.253 µM) is 0.97; in assay [2] (0.8 µM), 1.01; in assay [2] (2.53 µM), 1.05; in assay [2] (8 µM), 0.979; in assay [3] (first compound 0.08 µM), 0.999; in assay [3] (first compound 0.8 µM), 1.19. Moreover, the relative viability turned out to be 1.02 in assay [3] (first compound 2.53 µM); 0.942 in assay [3] (first compound 8 µM); 0.984 in assay [4] (first compound 0.5 µM); 0.961 in assay [4] (first compound 1.581 µM); 1.06 in assay [4] (first compound 5 µM); 0.997 in assay [4] (first compound 15.81 µM). Besides, the relative viability in assay [4] (first compound 50 µM) was 0.848.

Turning to PC-14, the relative viability amounted to 1.02 in assay [1] (0.5 µM); 0.916 in assay [1] (1.581 µM); 0.769 in assay [1] (5 µM); 0.985 in assay [1] (15.81 µM); 1.01 in assay [1] (50 µM); 0.958 in assay [2] (0.08 µM). Also, the relative viability in assay [2] (0.253 µM) is 0.967; in assay [2] (0.8 µM) it was 1.02; in assay [2] (2.53 µM), 1.04; in assay [2] (8 µM) it was 0.784; in assay [3] (first compound 0.08 µM) it was 0.138; in assay [3] (first compound 0.253 µM), 0.131. The relative viability in assay [3] (first compound 0.8 µM) was 0.142; in assay [3] (first compound 2.53 µM), 0.119; in assay [3] (first compound 8 µM), 0.0971; in assay [4] (first compound 0.5 µM), 0.916; in assay [4] (first compound 1.581 µM), 0.909; in assay [4] (first compound 5 µM), 0.946. Also, the relative viability in assay [4] (first compound 15.81 µM) was determined as 0.873; in assay [4] (first compound 50 µM) it was 0.913.

For the cell line RERF-LC-KJ, the relative viability in assay [1] (0.5 µM) amounted to 0.887; in assay [1] (1.581 µM), 0.853; in assay [1] (5 µM), 0.943; in assay [1] (15.81 µM) it was 0.908; in assay [1] (50 µM) it was 0.826; in assay [2] (0.08 µM), 0.944. The relative viability amounted to 1.01 in assay [2] (0.253 µM); 0.974 in assay [2] (0.8 µM); 1.05 in assay [2] (2.53 µM); 0.716 in assay [2] (8 µM); 0.43 in assay [3] (first compound 0.08 µM); 0.485 in assay [3] (first compound 0.253 µM). Besides, the relative viability was 0.461 in assay [3] (first compound 0.8 µM); 0.473 in assay [3] (first compound 2.53 µM); 0.488 in assay [3] (first compound 8 µM); 0.65 in assay [4] (first compound 0.5 µM); 0.732 in assay [4] (first compound 1.581 µM); 0.803 in assay [4] (first compound 5 µM). The relative viability in assay [4] (first compound 15.81 µM) came to 0.744; in assay [4] (first compound 50 µM), 0.551.

Consider SK-LU-1, for which the relative viability in assay [1] (0.5 µM) was 0.947; in assay [1] (1.581 µM), 0.865; in assay [1] (5 µM), 0.826; in assay [1] (15.81 µM), 0.838; in assay [1] (50 µM) it was 0.704; in assay [2] (0.08 µM), 0.944. The relative viability in assay [2] (0.253 µM) stood at 1.07; in assay [2] (0.8 µM), 1; in assay [2] (2.53 µM), 1.08; in assay [2] (8 µM), 0.936; in assay [3] (first compound 0.08 µM), 0.921; in assay [3] (first compound 0.253 µM), 1.03. Further, the relative viability in assay [3] (first compound 0.8 µM) is 0.961; in assay [3] (first compound 2.53 µM) it was 1.06; in assay [3] (first compound 8 µM), 0.879; in assay [4] (first compound 0.5 µM), 0.927; in assay [4] (first compound 1.581 µM) it was 0.885; in assay [4] (first compound 5 µM), 0.661. The relative viability in assay [4] (first compound 15.81 µM) worked out at 0.834; in assay [4] (first compound 50 µM), 0.565.

Take SK-MES-1: the relative viability in assay [1] (0.5 µM) is 0.965; in assay [1] (1.581 µM), 0.937; in assay [1] (5 µM), 0.932; in assay [1] (15.81 µM) it was 0.928; in assay [1] (50 µM), 0.783; in assay [2] (0.08 µM) it was 1. The relative viability in assay [2] (0.253 µM) is 0.985; in assay [2] (0.8 µM), 1.07; in assay [2] (2.53 µM), 0.991; in assay [2] (8 µM), 0.95; in assay [3] (first compound 0.08 µM), 1.02; in assay [3] (first compound 0.253 µM), 0.976. The relative viability was 0.965 in assay [3] (first compound 0.8 µM); 0.997 in assay [3] (first compound 2.53 µM); 0.792 in assay [3] (first compound 8 µM); 0.783 in assay [4] (first compound 0.5 µM); 0.968 in assay [4] (first compound 1.581 µM); 0.842 in assay [4] (first compound 5 µM). For the same cell line, the relative viability in assay [4] (first compound 15.81 µM) was found to be 0.805; in assay [4] (first compound 50 µM), 0.819.

Turning to SW 1573, the relative viability in assay [1] (0.5 µM) amounted to 0.926; in assay [1] (1.581 µM), 0.96; in assay [1] (5 µM) it was 0.851; in assay [1] (15.81 µM), 0.949; in assay [1] (50 µM), 0.756; in assay [2] (0.08 µM), 0.994. Further, the relative viability in assay [2] (0.253 µM) turned out to be 1.04; in assay [2] (0.8 µM), 0.991; in assay [2] (2.53 µM) it was 0.959; in assay [2] (8 µM), 0.68; in assay [3] (first compound 0.08 µM) it was 0.815; in assay [3] (first compound 0.253 µM), 0.844. Moreover, the relative viability in assay [3] (first compound 0.8 µM) was 0.861; in assay [3] (first compound 2.53 µM) it was 0.82; in assay [3] (first compound 8 µM), 0.228; in assay [4] (first compound 0.5 µM), 0.669; in assay [4] (first compound 1.581 µM), 0.715; in assay [4] (first compound 5 µM) it was 0.718. Also, the relative viability in assay [4] (first compound 15.81 µM) turned out to be 0.721; in assay [4] (first compound 50 µM), 0.454.

In the case of UMC-11, the relative viability in assay [1] (0.5 µM) was found to be 0.96; in assay [1] (1.581 µM), 0.735; in assay [1] (5 µM), 0.741; in assay [1] (15.81 µM) it was 1.01; in assay [1] (50 µM), 0.551; in assay [2] (0.08 µM) it was 0.863. The relative viability in assay [2] (0.253 µM) stood at 0.985; in assay [2] (0.8 µM), 0.971; in assay [2] (2.53 µM), 0.898; in assay [2] (8 µM), 0.624; in assay [3] (first compound 0.08 µM), 0.643; in assay [3] (first compound 0.253 µM) it was 0.819. Besides, the relative viability was found to be 0.782 in assay [3] (first compound 0.8 µM); 0.775 in assay [3] (first compound 2.53 µM); 0.43 in assay [3] (first compound 8 µM); 0.932 in assay [4] (first compound 0.5 µM); 0.856 in assay [4] (first compound 1.581 µM); 1.06 in assay [4] (first compound 5 µM). Besides, the relative viability worked out at 0.938 in assay [4] (first compound 15.81 µM) and 0.607 in assay [4] (first compound 50 µM).

The values above are taken from the supplement of paper PMC10307832.
